Patent publication US20220193103A1, “NANO-PUERARIN REGULATES TUMOR MICROENVIRONMENT AND FACILITATES CHEMO- AND IMMUNOTHERAPY IN MURINE TRIPLE NEGATIVE BREAST CANCER MODEL” (The University of North Carolina at Chapel Hill, priority 2019, published 2022)

Key:
[1] = tested on: TGF-β activated NIH3T3 cells; experiment: ROS inhibition in TGF-β activated NIH3T3 cells (Fluorometric Hydrogen Peroxide Assay Kit); assay type: cell-based, mouse
Protocol: Based on literature and Chinese medicine pharmacology, 10 anti-fibrosis TCMs were selected to screen the ROS inhibition effects on TGF-β activated NIH3T3 cells. NIH3T3 cells were pre-stimulated with 10 ng/mL TGF-β for 24 h and 2×10^3 cells/well were seeded in a 96-well black plate. Then, the cells were treated with different TCMs. After these drugs were added, the cells were further cultured for 48 h. Then the concentration of ROS was determined with the Fluorometric Hydrogen Peroxide Assay Kit according to the manufacturer's instructions. The fluorescence intensity measured by using a fluorescence microplate reader (FLx800, Biotek Instrument Inc., Winooski, VT, USA) at excitation and emission wavelengths of 485 and 530 nm, respectively.

NIH3T3 cells = assay type: cell-based, mouse; conditions: different concentrations, within 48 hours
Protocol: 1.4.4. Cytotoxicity of Puerarin. The addition of puerarin and nanoPue to NIH3T3 cells was the same as the ROS assay. After 48 h of incubation, the culture medium was discarded and the cell layers were washed twice with PBS. Then 100 μL culture medium and 10 μL MTT solution (5 mg/mL) were added and incubated for 4 h at 37° C. After the supernatant was removed, 150 μL DMSO was added and OD value was determined at 492 nm by using a multidetection microplate reader (Plate CHAMELEONTM V-Hidex). The cell viability rate of each concentration was calculated according to formula (1).
Cell viability %=(ODdosing group/ODcontrol group)×100% (1)

[2] = literature statement; cited from earlier work

Puerarin
ROS inhibition activity at different concentrations ([1]; TGF-β activated NIH3T3 cells, different concentrations): concentration-dependent ROS downregulation pattern | amount of ROS in TGF-β activated NIH3T3 cells ([1]; screen of ten natural compounds, 15 μg/mL, 48 h, compared with other natural compounds): significantly reduced | cytotoxicity in NIH3T3 cells (cell viability, MTT) (NIH3T3 cells): no cytotoxicity | solubility [2]: poorly soluble
